According to ChEMBL document CHEMBL4619713, “Novel PDE5 inhibitors derived from rutaecarpine for the treatment of Alzheimer's disease” (Bioorg Med Chem Lett, 2020):
One block for each compound: values may come before it. Activity calls are given as the source filed them. The rule behind the calls is not given here.

What was measured:
[1] = target: cGMP-specific 3',5'-cyclic phosphodiesterase (Homo sapiens, UniProt O76074); assay: Inhibition of PDE5A (unknown origin)
Homo sapiens [2] = species: Homo sapiens; assay: Selectivity index, ratio of IC50 for PDE6 (unknown origin) to IC50 for PDE5A (unknown origin)
Homo sapiens [3] = species: Homo sapiens; assay: Selectivity index, ratio of IC50 for PDE2 (unknown origin) to IC50 for PDE5A (unknown origin)
Phosphodiesterase 4 = Phosphodiesterase 4 (Homo sapiens, UniProt P27815+Q08499+Q07343+Q08493); assay: Inhibition of PDE4 (unknown origin); format: protein assay
[4] = target: High affinity cGMP-specific 3',5'-cyclic phosphodiesterase 9A (Homo sapiens, UniProt O76083); assay: Inhibition of PDE9 (unknown origin)
Chain of High affinity cGMP-specific 3',5'-cyclic phosphodiesterase 9A (O76083 whole entry): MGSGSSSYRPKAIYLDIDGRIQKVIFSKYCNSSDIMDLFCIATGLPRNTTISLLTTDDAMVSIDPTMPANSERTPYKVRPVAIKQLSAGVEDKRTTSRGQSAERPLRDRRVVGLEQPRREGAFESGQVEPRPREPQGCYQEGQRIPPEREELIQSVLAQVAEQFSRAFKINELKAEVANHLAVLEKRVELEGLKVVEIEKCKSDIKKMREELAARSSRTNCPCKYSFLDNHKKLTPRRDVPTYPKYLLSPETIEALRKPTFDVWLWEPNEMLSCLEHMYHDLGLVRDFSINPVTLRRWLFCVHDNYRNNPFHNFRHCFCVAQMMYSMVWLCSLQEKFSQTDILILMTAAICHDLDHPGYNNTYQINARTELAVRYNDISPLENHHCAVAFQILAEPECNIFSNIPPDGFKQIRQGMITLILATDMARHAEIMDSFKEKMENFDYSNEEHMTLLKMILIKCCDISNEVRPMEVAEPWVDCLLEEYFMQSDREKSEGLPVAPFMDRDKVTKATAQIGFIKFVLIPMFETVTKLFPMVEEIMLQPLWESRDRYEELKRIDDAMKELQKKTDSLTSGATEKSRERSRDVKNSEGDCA

[5] = target: cGMP-dependent 3',5'-cyclic phosphodiesterase (Homo sapiens, UniProt O00408); assay: Inhibition of PDE2 (unknown origin)
Chain of cGMP-dependent 3',5'-cyclic phosphodiesterase (O00408 whole entry): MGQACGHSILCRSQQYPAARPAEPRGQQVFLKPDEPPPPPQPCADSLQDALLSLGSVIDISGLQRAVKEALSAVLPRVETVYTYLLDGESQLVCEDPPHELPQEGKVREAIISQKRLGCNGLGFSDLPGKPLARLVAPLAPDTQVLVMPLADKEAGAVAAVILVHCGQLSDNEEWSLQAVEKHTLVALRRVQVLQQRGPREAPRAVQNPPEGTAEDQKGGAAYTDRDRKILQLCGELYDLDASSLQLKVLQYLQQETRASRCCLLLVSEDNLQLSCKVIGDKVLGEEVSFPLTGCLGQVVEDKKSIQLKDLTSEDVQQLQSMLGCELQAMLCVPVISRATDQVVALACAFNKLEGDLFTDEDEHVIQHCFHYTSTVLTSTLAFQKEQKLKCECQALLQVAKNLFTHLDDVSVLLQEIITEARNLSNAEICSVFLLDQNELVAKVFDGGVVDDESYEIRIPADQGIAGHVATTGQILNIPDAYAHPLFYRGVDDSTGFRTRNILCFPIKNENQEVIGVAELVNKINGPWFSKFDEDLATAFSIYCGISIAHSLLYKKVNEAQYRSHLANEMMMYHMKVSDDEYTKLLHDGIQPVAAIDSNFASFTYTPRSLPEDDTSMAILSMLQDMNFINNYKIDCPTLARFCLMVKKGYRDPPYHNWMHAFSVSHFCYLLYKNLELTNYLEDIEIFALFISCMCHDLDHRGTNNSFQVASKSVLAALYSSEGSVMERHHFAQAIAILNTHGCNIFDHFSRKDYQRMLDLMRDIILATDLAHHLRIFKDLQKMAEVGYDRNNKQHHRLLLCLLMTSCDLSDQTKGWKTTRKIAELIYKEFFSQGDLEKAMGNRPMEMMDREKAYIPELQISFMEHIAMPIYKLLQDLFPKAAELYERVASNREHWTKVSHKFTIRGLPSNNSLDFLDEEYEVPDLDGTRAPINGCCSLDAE

Phosphodiesterase 6 = assay: Inhibition of PDE6 (unknown origin); format: protein assay, Homo sapiens
Homo sapiens [6] = species: Homo sapiens; assay: Selectivity index, ratio of IC50 for PDE4 (unknown origin) to IC50 for PDE5A (unknown origin)
Mus musculus [7] = assay: Cognitive enhancing effect in mouse mouse model of scopolamine-induced cognition deficit assessed as reduction in escape latency at 5 and 10 mg/kg by water maze test; format: functional, organism-based
[8] = target: cAMP and cAMP-inhibited cGMP 3',5'-cyclic phosphodiesterase 10A (Homo sapiens, UniProt Q9Y233); assay: Inhibition of PDE10 (unknown origin)
Chain of cAMP and cAMP-inhibited cGMP 3',5'-cyclic phosphodiesterase 10A (Q9Y233 whole entry): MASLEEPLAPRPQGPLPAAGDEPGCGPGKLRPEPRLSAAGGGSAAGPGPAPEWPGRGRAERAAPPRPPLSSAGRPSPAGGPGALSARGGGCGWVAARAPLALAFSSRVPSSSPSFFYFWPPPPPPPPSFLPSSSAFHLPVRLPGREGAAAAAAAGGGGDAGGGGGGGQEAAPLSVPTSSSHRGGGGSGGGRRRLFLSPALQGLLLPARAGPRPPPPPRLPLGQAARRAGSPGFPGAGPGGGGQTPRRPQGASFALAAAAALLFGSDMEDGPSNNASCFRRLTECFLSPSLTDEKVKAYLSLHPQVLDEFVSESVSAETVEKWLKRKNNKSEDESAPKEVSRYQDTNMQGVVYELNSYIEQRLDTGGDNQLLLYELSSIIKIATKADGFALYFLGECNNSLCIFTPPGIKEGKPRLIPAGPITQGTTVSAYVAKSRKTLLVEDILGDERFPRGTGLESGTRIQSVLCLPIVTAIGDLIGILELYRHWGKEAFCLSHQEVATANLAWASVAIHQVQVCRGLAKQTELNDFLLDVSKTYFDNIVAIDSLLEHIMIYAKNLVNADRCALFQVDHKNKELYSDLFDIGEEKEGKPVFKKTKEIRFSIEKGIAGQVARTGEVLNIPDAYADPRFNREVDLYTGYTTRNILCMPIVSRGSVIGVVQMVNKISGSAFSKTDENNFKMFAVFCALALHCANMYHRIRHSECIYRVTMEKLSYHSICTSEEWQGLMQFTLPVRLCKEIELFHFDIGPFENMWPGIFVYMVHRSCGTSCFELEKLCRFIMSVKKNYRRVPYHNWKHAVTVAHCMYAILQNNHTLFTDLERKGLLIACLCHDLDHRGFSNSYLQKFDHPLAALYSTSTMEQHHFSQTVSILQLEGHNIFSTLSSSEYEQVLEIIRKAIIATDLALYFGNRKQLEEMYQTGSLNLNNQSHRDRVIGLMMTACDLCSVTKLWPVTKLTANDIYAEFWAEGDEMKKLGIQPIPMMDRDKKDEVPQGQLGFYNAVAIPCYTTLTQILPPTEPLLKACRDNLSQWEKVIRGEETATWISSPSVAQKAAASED

Mus musculus [9] = assay: Cognitive enhancing effect in mouse mouse model of scopolamine-induced cognition deficit assessed as decrease in frequent error at 5 and 10 mg/kg by water maze test; format: functional, organism-based
Homo sapiens [10] = species: Homo sapiens; assay: Selectivity index, ratio of IC50 for PDE9 (unknown origin) to IC50 for PDE5A (unknown origin)

Structure (SMILES): COc1ccc2c3c([nH]c2c1)-c1nc2ccccc2c(=O)n1CC3
IC50 [1]: 22100 nM

Structure (SMILES): COc1cc2c(cc1OC)C(=O)C(CC1CCN(Cc3ccccc3)CC1)C2 (stereo not drawn) [DONEPEZIL]
IC50 [1]: > 100000 nM

Structure (SMILES): CCn1c2c(c3ccc(OC)cc31)CCn1c-2nc2ccccc2c1=O
IC50 [1]: 11600 nM

Structure (SMILES): CC(C)CCn1c2c(c3c(O)cc(O)cc31)CCn1c-2nc2ccccc2c1=O
Ratio IC50 (Homo sapiens [3]): > 5000
IC50 (Phosphodiesterase 4): > 500000 nM
IC50 [4]: > 500000 nM
IC50 [5]: > 500000 nM
IC50 (Phosphodiesterase 6): 43800 nM
IC50 [1]: 86 nM
Ratio IC50 (Homo sapiens [6]): > 5000
Activity (Mus musculus [7]): Active
IC50 [8]: 32100 nM
Activity (Mus musculus [9]): Active
Ratio IC50 (Homo sapiens [2]): > 500
Ratio IC50 (Homo sapiens [10]): > 5000

Structure (SMILES): CCCn1c2c(c3ccc(O)cc31)CCn1c-2nc2ccccc2c1=O
IC50 [1]: 1330 nM

Structure (SMILES): CCCn1c2c(c3c(OC)cc(OC)cc31)CCn1c-2nc2ccccc2c1=O
IC50 [1]: 19800 nM

Structure (SMILES): CC(C)CCn1c2c(c3ccccc31)CCn1c-2nc2ccccc2c1=O
IC50 [1]: 610 nM

Structure (SMILES): CCn1c2c(c3ccc(O)cc31)CCn1c-2nc2ccccc2c1=O
IC50 [1]: 970 nM

Structure (SMILES): COc1cc(OC)c2c3c([nH]c2c1)-c1nc2ccccc2c(=O)n1CC3
IC50 [1]: 45600 nM

Structure (SMILES): CCn1c2c(c3c(OC)cc(OC)cc31)CCn1c-2nc2ccccc2c1=O
IC50 [1]: 47300 nM

Structure (SMILES): CCn1c2c(c3ccccc31)CCn1c-2nc2ccccc2c1=O
IC50 [1]: 1120 nM

Structure (SMILES): CCCn1c2c(c3ccc(OC)cc31)CCn1c-2nc2ccccc2c1=O
IC50 [1]: 12100 nM

Structure (SMILES): CCCCn1c2c(c3ccccc31)CCn1c-2nc2ccccc2c1=O
IC50 [1]: 1120 nM

Structure (SMILES): O=c1c2ccccc2nc2n1CCc1c-2[nH]c2cc(O)cc(O)c12
IC50 [1]: 790 nM

Second part, the compound after the results:

IC50 [1]: 260 nM
Structure (SMILES): CCCCn1c2c(c3c(O)cc(O)cc31)CCn1c-2nc2ccccc2c1=O

IC50 [1]: 970 nM
Structure (SMILES): CCn1c2c(c3c(O)cc(O)cc31)CCn1c-2nc2ccccc2c1=O

IC50 [1]: 1700 nM
Structure (SMILES): CCCn1c2c(c3ccccc31)CCn1c-2nc2ccccc2c1=O

IC50 [1]: 20600 nM
Structure (SMILES): CCCCn1c2c(c3c(OC)cc(OC)cc31)CCn1c-2nc2ccccc2c1=O

IC50 [1]: 630 nM
Structure (SMILES): CCCCn1c2c(c3ccc(O)cc31)CCn1c-2nc2ccccc2c1=O

Ratio IC50 (Homo sapiens [2]): 10
Structure (SMILES): CCCc1nn(C)c2c(=O)[nH]c(-c3cc(S(=O)(=O)N4CCN(C)CC4)ccc3OCC)nc12

IC50 [1]: 110 nM
Structure (SMILES): CC(C)CCn1c2c(c3ccc(O)cc31)CCn1c-2nc2ccccc2c1=O

IC50 [1]: 330 nM
Structure (SMILES): CCCn1c2c(c3c(O)cc(O)cc31)CCn1c-2nc2ccccc2c1=O

IC50 [1]: 1230 nM
Structure (SMILES): O=c1c2ccccc2nc2n1CCc1c-2[nH]c2ccccc12 [RUTAECARPINE]

IC50 [1]: 18200 nM
Structure (SMILES): COc1cc(OC)c2c3c(n(CCC(C)C)c2c1)-c1nc2ccccc2c(=O)n1CC3

IC50 [1]: 6170 nM
Structure (SMILES): COc1ccc2c3c(n(CCC(C)C)c2c1)-c1nc2ccccc2c(=O)n1CC3

IC50 [1]: 1360 nM
Structure (SMILES): O=c1c2ccccc2nc2n1CCc1c-2[nH]c2cc(O)ccc12

IC50 [1]: 9190 nM
Structure (SMILES): CCCCn1c2c(c3ccc(OC)cc31)CCn1c-2nc2ccccc2c1=O
